The test system of data set [1] is DNMT1/3a/3b. Briefly: Enzyme kinetic study, overall statements on DNMT1/3a/3b activities. Type of data set: biochemical.
Experimental: (§3) For the DNMT1 activity assay, the substrate solution, 0.001 mg/ml Poly(dI-dC):Poly(dI-dC) in 50 mM Tris-HCl, pH 7.5, 50 mM NaCl, 5 mM EDTA, 5 mM DTT, 1 mM PMSF, 5% glycerol, 0.01% Brij35, 1% DMSO was used. For the DNMT3a/3b activity assay, 0.0075 mg/ml Lambda DNA in 50 mM Tris-HCl, pH 7.5, 50 mM NaCl, 5 mM EDTA, 5 mM DTT, 1 mM PMSF, 5% glycerol, 1% DMSO, was used. The indicated DNMT1, DNMT3a, or DNMT3b was added to the appropriate substrate solution and gently mixed. […] The mixtures were first incubated for 15 min, then ^3H-SAM was added to the reaction mixture to initiate the reaction, and the mixture was incubated for 60 min at 30° C. Following incubation, the reaction mixture was finally transferred to filter-paper for detection of radioactivity counts.
The nature of data set [2]: Metabolite profiling of plasma, urine, feces after intravenous dose. Type of data set: in vivo, rats. Here is the method: (§1) Nine male Sprague Dawley rats (Group 1) were designated for the pharmacokinetic phase, 3 male Sprague Dawley rats (Group 2) for the excretion mass balance phase, and 7 male Sprague Dawley rats (Group 3) and 9 male Long Evans rats (Group 4) for the tissue distribution phase. All animals received a single intravenous dose of [^14C]-25HC3S at 10 mg/kg and a target radioactivity of 225 µCi/kg. Blood samples were collected from all Group 1 animals at approximately 0.083, 0.25, 0.5, 1, 2, 4, 8, 12, 24, 48, and 72 hours post-dose. Urine and feces were collected from all Group 2 animals periodically through 168 hours post-dose. […] Following blood collection, animals were euthanized by CO2 inhalation and carcasses frozen in a dry ice/hexane bath for processing by quantitative whole body autoradiography. Whole blood, plasma, urine, feces, cage rinse, and cage wash were analyzed for total radioactivity by liquid scintillation counting.

Data set [3] is described as follows: Metabolite profiling of plasma and feces after oral dose. It counts as in vivo, rats. The settings on record: oral 75 mg/kg. The text has this: Radiolabeled components in plasma and feces extracts were profiled and identified using radio-high performance liquid chromatography (HPLC) and high performance liquid chromatography/mass spectrometry (HPLC/MS) methods.

The target in data set [4] is DNMT1 (Homo sapiens, UniProt P26358). Briefly: DNMT1 activity assay (3H-SAM, filter-paper radioactivity). It counts as biochemical.
Experimental: as §3
Data set [5] can be described thus: Tissue distribution by quantitative whole body autoradiography after intravenous dose. Type of data set: in vivo, male Sprague Dawley rats. The settings on record: intravenous 10 mg/kg.
Excerpt: (§2) The objectives of this study were to determine the plasma pharmacokinetics of [4-^14C]-25HC3S-derived radioactivity in male Sprague Dawley rats, determine the routes of elimination and excretion mass balance of [4-^14C]-25HC3S-derived radioactivity in male Sprague Dawley rats, determine the tissue distribution and tissue pharmacokinetics of [4-^14C]-25HC3S-derived radioactivity using quantitative whole body autoradiography methods in male Sprague Dawley and Long Evans rats following a single intravenous (bolus) dose, and to provide plasma, urine, and fecal homogenate samples for metabolite profiling of [4-^14C]-25HC3S-derived radioactivity.
as §1

Data set [6] is described as follows: Excretion mass balance after single intravenous dose. The conditions noted are these: intravenous 10 mg/kg, over 168 hours. It counts as in vivo, male Sprague Dawley rats.
Excerpt: as §2
as §1, with “µCi/kg.” for “µCi/kg. Blood samples were collected from all Group 1 animals at approximately 0.083, 0.25, 0.5, 1, 2, 4, 8, 12, 24, 48, and 72 hours post-dose. Urine and feces were collected from all Group 2 animals periodically through 168 hours post-dose.”

Data set [7] can be described thus: Tissue distribution by quantitative whole body autoradiography after oral dose. It counts as in vivo, male Sprague Dawley rats. The settings on record: oral 75 mg/kg.
Data set [8] is described as follows: Plasma pharmacokinetics of radioactivity after single intravenous dose. It counts as in vivo, male Sprague Dawley rats. The settings on record: single intravenous (bolus) dose 10 mg/kg.
Excerpt: as §2
as §1, with “µCi/kg.” for “µCi/kg. Blood samples were collected from all Group 1 animals at approximately 0.083, 0.25, 0.5, 1, 2, 4, 8, 12, 24, 48, and 72 hours post-dose. Urine and feces were collected from all Group 2 animals periodically through 168 hours post-dose.”

Data set [9] in a line: Tissue distribution after intravenous dose in pigmented rats. Type of data set: in vivo, male Long Evans rats. The conditions noted are these: intravenous 10 mg/kg, first 168 hours post-dose.
Excerpt: as §2
as §1, with “µCi/kg.” for “µCi/kg. Blood samples were collected from all Group 1 animals at approximately 0.083, 0.25, 0.5, 1, 2, 4, 8, 12, 24, 48, and 72 hours post-dose. Urine and feces were collected from all Group 2 animals periodically through 168 hours post-dose.”

The nature of data set [10]: Plasma pharmacokinetics of radioactivity after single oral (gavage) dose. It counts as in vivo, rats. The conditions noted are these: single oral (gavage) dose 75 mg/kg. As for the experimental part: The terminal elimination phase T½ was 27.3 hours.

The values below come from patent US20230293551A1, “USE OF OXYGENATED CHOLESTEROL SULFATES FOR TREATING AUTOIMMUNE CONDITIONS” (Durect Corporation, priority 2020, published 2023).

Chain of DNMT1 (P26358 whole entry, species assumed): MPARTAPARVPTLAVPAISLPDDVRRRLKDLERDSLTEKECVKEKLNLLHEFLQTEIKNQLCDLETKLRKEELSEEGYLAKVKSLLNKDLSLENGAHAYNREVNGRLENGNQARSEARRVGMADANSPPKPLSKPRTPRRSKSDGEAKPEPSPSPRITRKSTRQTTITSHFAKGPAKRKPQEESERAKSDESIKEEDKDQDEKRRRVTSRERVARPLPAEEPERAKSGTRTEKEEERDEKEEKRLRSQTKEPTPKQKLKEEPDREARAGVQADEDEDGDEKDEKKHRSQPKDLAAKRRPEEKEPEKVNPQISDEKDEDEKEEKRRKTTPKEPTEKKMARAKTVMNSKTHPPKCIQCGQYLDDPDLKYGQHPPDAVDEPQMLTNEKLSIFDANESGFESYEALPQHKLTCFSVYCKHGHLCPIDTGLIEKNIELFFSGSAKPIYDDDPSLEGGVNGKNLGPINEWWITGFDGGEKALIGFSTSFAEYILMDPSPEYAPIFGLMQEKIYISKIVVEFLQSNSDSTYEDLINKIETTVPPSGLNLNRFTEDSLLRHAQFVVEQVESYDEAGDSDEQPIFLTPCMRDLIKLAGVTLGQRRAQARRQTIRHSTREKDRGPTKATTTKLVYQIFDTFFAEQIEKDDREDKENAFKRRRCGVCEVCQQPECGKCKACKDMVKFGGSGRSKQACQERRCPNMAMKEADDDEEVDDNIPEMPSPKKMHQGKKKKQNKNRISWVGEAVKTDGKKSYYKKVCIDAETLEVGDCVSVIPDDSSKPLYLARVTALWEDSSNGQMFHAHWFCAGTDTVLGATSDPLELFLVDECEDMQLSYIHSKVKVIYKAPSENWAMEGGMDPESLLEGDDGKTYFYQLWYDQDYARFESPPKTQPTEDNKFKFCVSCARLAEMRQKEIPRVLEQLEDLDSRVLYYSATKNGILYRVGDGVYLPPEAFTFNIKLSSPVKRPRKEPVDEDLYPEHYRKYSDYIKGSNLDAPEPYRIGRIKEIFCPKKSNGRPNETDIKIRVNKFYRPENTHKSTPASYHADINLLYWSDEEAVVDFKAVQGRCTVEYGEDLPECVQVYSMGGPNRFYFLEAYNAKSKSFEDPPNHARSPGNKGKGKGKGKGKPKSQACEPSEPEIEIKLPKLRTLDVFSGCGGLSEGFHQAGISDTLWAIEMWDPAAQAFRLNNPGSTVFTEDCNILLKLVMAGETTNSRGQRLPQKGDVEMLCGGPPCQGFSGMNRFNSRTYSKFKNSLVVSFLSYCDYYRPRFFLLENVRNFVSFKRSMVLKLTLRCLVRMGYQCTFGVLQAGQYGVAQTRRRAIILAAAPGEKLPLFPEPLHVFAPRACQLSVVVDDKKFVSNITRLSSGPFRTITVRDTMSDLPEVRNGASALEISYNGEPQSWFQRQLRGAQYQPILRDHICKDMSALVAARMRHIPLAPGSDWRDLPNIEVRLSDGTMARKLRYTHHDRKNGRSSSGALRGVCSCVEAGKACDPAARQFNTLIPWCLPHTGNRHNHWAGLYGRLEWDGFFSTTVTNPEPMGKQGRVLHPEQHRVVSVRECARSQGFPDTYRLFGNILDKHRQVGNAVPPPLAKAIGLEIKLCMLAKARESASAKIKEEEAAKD

On to `C[C@H](CCCC(C)(C)O)[C@H]1CC[C@H]2[C@@H]3CC=C4C[C@@H](OS(=O)(=O)O)CC[C@]4(C)[C@H]3CC[C@]12C` [25HC3S, 25-hydroxycholesterol-3-sulfate], for which the “effect on enzymatic activities (DNMTs)” value in data set [1] is “potent inhibitors of DNMTs”. The IC50 in [1] (DNMT-1, 3a, 3b, read-out: IC50s (kinetic study)) was in the range of 1 to 10 µM. Also, the “% of dose in feces” value in data set [2] (pools 0 to 48 hours postdose) is 2 % of dose. The “share of the exposure (AUC) to 25HC3S related radioactivity in plasma” value in data set [2] (up to 1 hour postdose) is given as “approximately 54%”.

Regarding `C[C@H](CCCC(C)(C)O)[C@H]1CC[C@H]2[C@@H]3CC=C4C[C@@H](O)CC[C@]4(C)[C@H]3CC[C@]12C` [25HC, 25-Hydroxycholesterol], the “relative observed intensity (ROI) in plasma” value in [3] (2 hour postdose plasma) is 37%. Further, the “% of total dose in feces” value in data set [3] (pools 0 to 168 hours postdose) is reported as 1.9 % of total dose. The “activates DNMT-1 activity” value in data set [4] was found to be 8 fold. In data set [2], the “detection in plasma, urine, or feces samples” value is listed as “Neither desmosterol sulfate nor 25-hydroxycholesterol was detected”.

Turning to `CC(CO)CCC[C@@H](C)[C@H]1CC[C@H]2[C@@H]3CC=C4C[C@@H](OS(=O)(=O)O)CC[C@]4(C)[C@H]3CC[C@]12C` (stereo partly drawn) [27HC3S, 27-hydroxycholesterol-3-sulfate], in data set [1], the “effect on enzymatic activities (DNMTs)” value is “potent inhibitors of DNMTs”.

Take `C[C@@H](CO)CCC[C@@H](C)[C@H]1CC[C@H]2[C@@H]3CC=C4C[C@@H](O)CC[C@]4(C)[C@H]3CC[C@]12C` [27HC, 27-Hydroxycholesterol, reference compound]: the “effect on enzymatic activities (DNMTs)” value in data set [1] is listed as “had no effect on other enzymes”.

On to `CC(C)CCC[C@@H](C)[C@H]1CC[C@H]2[C@@H]3CC=C4C[C@@H](OS(=O)(=O)O)CC[C@]4(C)[C@H]3CC[C@]12C` [Xol3S, Cholesterol 3-Sulfate, reference compound], for which the “effect on enzymatic activities (DNMTs)” value in data set [1] is reported as “did not significantly affect enzymatic activities”.

Regarding `CC(C)CCC[C@@H](C)[C@H]1CC[C@H]2[C@@H]3CC=C4C[C@@H](O)CC[C@]4(C)[C@H]3CC[C@]12C` [Xol, Cholesterol], the “effect on enzymatic activities (DNMTs)” value in data set [1] is reported as “did not significantly affect enzymatic activities”.

Consider `C[C@H](CCCC(C)(C)O)[C@H]1CC[C@H]2[C@@H]3CC=C4[14CH2][C@@H](OS(=O)(=O)O)CC[C@]4(C)[C@H]3CC[C@]12C` [[4-^14C]-25HC3S], for which, in data set [5], the “AUClast in the liver” value is ≤ 364,000 h.ng/g; the “plasma:whole blood AUClast ratio” value is listed as 0.79; the “tissue distribution of radioactivity” value is “broadly distributed and detected by quantitative whole body autoradiography in all tissues except the eye (lens)”. For the same compound, in data set [5] (calculated using AUClast), the “tissue:plasma ratio, liver” value is on record as 11.4 and the “tissue:plasma ratio, small intestine (wall)” value is 7.44. Also, the “recovered radioactivity in feces” value in [6] is given as 83.0%. Moreover, in [7], the “Uveal tract and brain concentrations” value is “approximately 1000 ng equiv./g”; the “plasma:whole blood AUClast ratio” value is reported as 1.12; the “tissue Tmax” value is listed as at most 6 hours postdose; the “tissue distribution of radioactivity” value is “broadly distributed and detected by quantitative whole body autoradiography in all tissues except the eye (lens)”. Besides, the “whole blood AUClast” value in [7] is recorded as 127,000 h•ng equiv./g. For the same compound, in [7] (calculated using AUClast), the “tissue:plasma ratio, adrenal gland” value is recorded as 6.64; the “tissue:plasma ratio, liver” value is 6.96; the “tissue:plasma ratio, small intestine (wall)” value is 15.4. Besides, the “terminal elimination phase T½” value in [8] is 26.6 h. The “plasma or whole blood concentrations versus Sprague Dawley rats” value in data set [9] was “no substantial difference in plasma or whole blood concentrations”. Further, the “plasma AUClast” value in data set [10] was 96,400 h•ng equiv./g.

Regarding desmosterol sulfate, in [2], the “detection in plasma, urine, or feces samples” value was “Neither desmosterol sulfate nor 25-hydroxycholesterol was detected”.
